According to patent publication US9247759B2, “Identification of human T2R receptors that respond to bitter compounds that elicit the bitter taste in compositions, and the use thereof in assays to identify compounds that inhibit (block) bitter taste in compositions and use thereof” (SENOMYX, INC., priority 2007, dated 2016):
Values joined by “and” are separate entries in the source; they are usually repeats but may differ in a detail not shown here. Equal entries are not always repeated. Where two headings read alike, the source gives them in different places.

Columns and labels:
hT2R55 = experiment: hT2R panel inhibition, transient HEK293 G16g44, agonist Cinchonine 150 μM; type: cell-based, human; settings: compound at 25 μM; for screening result against bitter receptor 55: receptor activated to EC80 with the corresponding agonist
Outline: (§1)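 Transfect one hT2R per well set; stimulate with agonist at EC80; add test compound; record reduction of functional response as inhibition.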

hT2R61 = hT2R61 (Homo sapiens (Human), UniProt P59537); experiment: hT2R panel inhibition, transient HEK293 G16g44, agonist Aristolochic Acid 25 nM; type: cell-based; settings: HEK293, compound at 25 μM
Sequence of hT2R61 (P59537 whole entry): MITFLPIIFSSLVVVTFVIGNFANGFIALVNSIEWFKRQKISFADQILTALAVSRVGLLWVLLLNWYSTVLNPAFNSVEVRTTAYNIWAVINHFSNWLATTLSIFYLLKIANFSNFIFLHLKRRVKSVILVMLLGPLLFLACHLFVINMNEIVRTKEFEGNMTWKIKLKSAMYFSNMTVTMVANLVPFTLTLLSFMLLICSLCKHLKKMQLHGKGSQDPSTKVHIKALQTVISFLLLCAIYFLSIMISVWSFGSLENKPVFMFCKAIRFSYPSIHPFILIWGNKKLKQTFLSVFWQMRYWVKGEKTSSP
Outline: as §1

hT2R64 = hT2R64 (Homo sapiens (Human), UniProt P59538); experiment: hT2R panel inhibition, transient HEK293 G16g44, agonist Aristolochic Acid 1 μM; type: cell-based; settings: HEK293, compound at 25 μM
Sequence of hT2R64 (P59538 whole entry): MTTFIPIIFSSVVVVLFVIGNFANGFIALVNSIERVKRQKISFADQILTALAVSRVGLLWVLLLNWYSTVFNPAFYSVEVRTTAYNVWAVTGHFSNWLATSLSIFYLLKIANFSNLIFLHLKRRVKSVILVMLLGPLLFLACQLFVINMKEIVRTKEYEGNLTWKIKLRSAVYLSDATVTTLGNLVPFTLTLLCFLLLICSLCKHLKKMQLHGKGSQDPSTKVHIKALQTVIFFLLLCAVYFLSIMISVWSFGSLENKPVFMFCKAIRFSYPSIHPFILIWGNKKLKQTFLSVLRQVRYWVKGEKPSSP
Outline: as §1

hT2R63 = experiment: hT2R panel inhibition, transient HEK293 G16g44, agonist Caffeine 1 mM or Andrographolide 100 μM; type: cell-based, human; settings: compound at 25 μM; for screening result against bitter receptor 63: receptor activated to EC80 with the corresponding agonist
Outline: as §1

hT2R14 [1] = target: T1, hT2R14 (Homo sapiens (Human), UniProt Q9NYV8); experiment: hT2R panel inhibition, transient HEK293 G16g44, agonist Aristolochic Acid 2 μM; type: cell-based; settings: HEK293, compound at 25 μM
T1 sequence (Q9NYV8 whole entry): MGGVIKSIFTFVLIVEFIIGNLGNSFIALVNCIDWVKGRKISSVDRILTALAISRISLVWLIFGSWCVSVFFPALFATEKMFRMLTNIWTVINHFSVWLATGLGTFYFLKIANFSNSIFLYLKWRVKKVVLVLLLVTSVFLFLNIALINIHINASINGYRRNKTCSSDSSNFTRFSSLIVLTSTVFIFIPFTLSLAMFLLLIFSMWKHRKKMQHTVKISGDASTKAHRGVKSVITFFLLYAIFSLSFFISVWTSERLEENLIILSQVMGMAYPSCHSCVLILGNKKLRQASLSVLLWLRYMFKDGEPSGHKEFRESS
Outline: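 Each hT2R was transiently transfected into HEK293 cells stably expressing G16g44 and assayed functionally for inhibition of agonist response. Agonists were applied at EC80: andrographolide at 0.5 mM for hT2R8 and aristolochic acid at 2 μM for hT2R14.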

hT2R14 [2] = target: T1, hT2R14; experiment: hT2R14 antagonist high-throughput FLIPR assay, stable cell line with G16g44, agonist aristolochic acid; type: cell-based; settings: read-out: IC50 on hT2R14 bitter receptor
Outline: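 HEK293 cells stably expressing hT2R14 with chimeric G16g44 were stimulated with aristolochic acid (3 μM), giving 70-80% of maximal receptor activity. Test compounds were added together with the agonist, and antagonism was read as fluorescent calcium signal on FLIPR.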

hT2R10 = hT2R10 (Homo sapiens (Human), UniProt Q9NYW0); experiment: hT2R panel inhibition, transient HEK293 G16g44, agonist Strychnine 50 μM; type: cell-based
Sequence of hT2R10 (Q9NYW0 whole entry): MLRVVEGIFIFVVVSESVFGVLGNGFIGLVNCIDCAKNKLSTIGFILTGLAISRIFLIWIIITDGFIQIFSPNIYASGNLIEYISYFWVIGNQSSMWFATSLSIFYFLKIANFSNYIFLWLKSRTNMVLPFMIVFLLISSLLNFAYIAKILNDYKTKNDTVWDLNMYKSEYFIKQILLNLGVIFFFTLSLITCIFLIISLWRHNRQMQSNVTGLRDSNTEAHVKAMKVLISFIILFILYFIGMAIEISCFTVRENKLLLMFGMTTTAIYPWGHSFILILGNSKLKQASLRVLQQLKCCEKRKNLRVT

hT2R75 = hT2R75 (Homo sapiens (Human), UniProt P59540); experiment: hT2R panel inhibition, transient HEK293 G16g44, agonist Strychnine 1 μM; type: cell-based; settings: HEK293, read-out: screening result against bitter receptor 75, compound at 25 μM; receptor activated to EC80 with the corresponding agonist
Sequence of hT2R75 (P59540 whole entry): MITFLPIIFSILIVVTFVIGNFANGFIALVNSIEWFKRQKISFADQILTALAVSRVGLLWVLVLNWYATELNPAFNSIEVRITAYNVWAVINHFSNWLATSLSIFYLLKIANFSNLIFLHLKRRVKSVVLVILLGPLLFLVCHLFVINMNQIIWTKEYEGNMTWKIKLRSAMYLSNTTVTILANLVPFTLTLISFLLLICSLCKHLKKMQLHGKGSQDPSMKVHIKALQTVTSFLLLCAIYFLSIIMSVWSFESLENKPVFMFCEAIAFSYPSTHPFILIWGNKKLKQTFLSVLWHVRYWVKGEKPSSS

hT2R4 = hT2R4 (Homo sapiens (Human), UniProt Q9NYW5); experiment: hT2R panel inhibition, transient HEK293 G16g44, agonist Chloroquine pH6.5 5 mM; type: cell-based; settings: HEK293, compound at 25 μM
Sequence of hT2R4 (Q9NYW5 whole entry): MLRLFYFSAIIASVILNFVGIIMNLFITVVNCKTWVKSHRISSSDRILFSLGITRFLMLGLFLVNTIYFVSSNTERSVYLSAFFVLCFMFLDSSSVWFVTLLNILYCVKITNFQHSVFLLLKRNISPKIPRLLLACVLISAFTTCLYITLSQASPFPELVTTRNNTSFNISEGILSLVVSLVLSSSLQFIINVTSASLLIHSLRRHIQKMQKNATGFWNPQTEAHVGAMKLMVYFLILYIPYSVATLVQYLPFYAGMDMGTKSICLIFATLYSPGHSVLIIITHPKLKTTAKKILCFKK
Experimental: Specifically, in order to evaluate the inhibitory selectivity of the Compound C compound, this compound was tested against 22 human T2Rs which were deorphaned by Senomyx. These receptors and the bitter ligands that activate these human T2Rs are reported in earlier patent applications which are incorporated by reference herein. These 22 human T2Rs are hT2R1, 3, 4, 5, 7, 8, 9, 10, 13, 14, 16, 44, 51, 54, 55, 61, 63, 64, 65, 67, 71 and 75. The amino acid and nucleic acid sequences of all of these T2Rs may be found in these earlier patent applications. These human T2Rs were each individually transiently transfected into HEK293 cells that stably express the promiscuous G protein G16g44 and functional assays were effected using these receptors as disclosed in these same patent applications. […] The ligands were used at EC80 concentration levels. The list of bitter ligands utilized and the tested ligand concentrations are contained in Table 5 of this example.
Relating to the foregoing, FIG. 5 contains experimental results wherein Compound C was tested with different agonist compounds. The inhibition activity is represented by the reduction of receptor activity in the presence of Compound C. […] These 13 hT2Rs are hT2R3, 7, 10, 14, 16, 44, 51, 55, 61, 63, 64, 65, and 71.

hT2R71 = hT2R71 (Homo sapiens (Human), UniProt P59536); experiment: hT2R panel inhibition, transient HEK293 G16g44, agonist Picric Acid 10 μM; type: cell-based; settings: HEK293, compound at 25 μM
Sequence of hT2R71 (P59536 whole entry): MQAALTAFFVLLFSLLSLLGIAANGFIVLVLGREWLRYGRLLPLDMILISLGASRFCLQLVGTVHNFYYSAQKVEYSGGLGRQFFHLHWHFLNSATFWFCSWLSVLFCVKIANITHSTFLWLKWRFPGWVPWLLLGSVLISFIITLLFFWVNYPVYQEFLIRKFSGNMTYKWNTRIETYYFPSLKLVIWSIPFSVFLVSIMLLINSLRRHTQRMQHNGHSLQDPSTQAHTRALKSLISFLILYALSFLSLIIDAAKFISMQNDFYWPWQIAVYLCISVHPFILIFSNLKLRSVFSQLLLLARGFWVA
Outline: as §1

hT2R44 = experiment: hT2R panel inhibition, transient HEK293 G16g44, agonist Denatonium 0.5 μM; type: cell-based, human; settings: compound at 25 μM; for screening result against bitter receptor 44: receptor activated to EC80 with the corresponding agonist
Outline: as §1

hT2R3 = hT2R3 (Homo sapiens (Human), UniProt Q9NYW6); experiment: hT2R panel inhibition, transient HEK293 G16g44, agonist Chloroquine pH6.5 50 μM; type: cell-based; settings: HEK293, compound at 25 μM
Sequence of hT2R3 (Q9NYW6 whole entry): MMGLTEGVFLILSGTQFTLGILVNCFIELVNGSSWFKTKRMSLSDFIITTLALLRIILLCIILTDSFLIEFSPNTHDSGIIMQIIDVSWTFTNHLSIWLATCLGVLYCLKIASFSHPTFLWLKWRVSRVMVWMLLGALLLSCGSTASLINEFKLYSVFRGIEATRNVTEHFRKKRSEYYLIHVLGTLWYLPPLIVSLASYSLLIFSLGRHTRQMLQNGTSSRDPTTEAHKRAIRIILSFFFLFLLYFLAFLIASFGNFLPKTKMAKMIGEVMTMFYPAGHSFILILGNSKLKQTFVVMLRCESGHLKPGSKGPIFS
Outline: as §1

hT2R16 = hT2R16 (Homo sapiens (Human), UniProt Q9NYV7); experiment: hT2R panel inhibition, transient HEK293 G16g44, agonist Salicin 1 mM; type: cell-based; settings: HEK293, compound at 25 μM
Sequence of hT2R16 (Q9NYV7 whole entry): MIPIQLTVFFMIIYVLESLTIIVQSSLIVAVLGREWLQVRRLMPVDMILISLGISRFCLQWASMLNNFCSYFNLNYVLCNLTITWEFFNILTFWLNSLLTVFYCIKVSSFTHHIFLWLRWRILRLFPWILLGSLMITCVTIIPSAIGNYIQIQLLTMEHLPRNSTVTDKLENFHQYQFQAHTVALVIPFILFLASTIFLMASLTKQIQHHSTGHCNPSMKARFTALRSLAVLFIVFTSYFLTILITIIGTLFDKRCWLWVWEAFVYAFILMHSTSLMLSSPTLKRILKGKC
Outline: as §1

hT2R7 = hT2R7 (Homo sapiens (Human), UniProt Q9NYW3); experiment: hT2R panel inhibition, transient HEK293 G16g44, agonist Chloroquine pH6.5 10 mM; type: cell-based; settings: HEK293, compound at 25 μM
Sequence of hT2R7 (Q9NYW3 whole entry): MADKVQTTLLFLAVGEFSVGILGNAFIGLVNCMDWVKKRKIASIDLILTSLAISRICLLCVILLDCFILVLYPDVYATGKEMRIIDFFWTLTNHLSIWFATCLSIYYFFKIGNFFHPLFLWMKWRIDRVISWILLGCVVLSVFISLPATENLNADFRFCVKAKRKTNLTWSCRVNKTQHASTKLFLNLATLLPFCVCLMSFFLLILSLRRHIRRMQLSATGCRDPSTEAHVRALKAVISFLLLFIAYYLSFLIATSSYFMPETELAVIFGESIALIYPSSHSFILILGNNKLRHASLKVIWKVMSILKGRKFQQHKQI
Outline: as §1

hT2R5 = hT2R5 (Homo sapiens (Human), UniProt Q9NYW4); experiment: hT2R panel inhibition, transient HEK293 G16g44, agonist Picoline 10 mM; type: cell-based; settings: HEK293, compound at 25 μM
Sequence of hT2R5 (Q9NYW4 whole entry): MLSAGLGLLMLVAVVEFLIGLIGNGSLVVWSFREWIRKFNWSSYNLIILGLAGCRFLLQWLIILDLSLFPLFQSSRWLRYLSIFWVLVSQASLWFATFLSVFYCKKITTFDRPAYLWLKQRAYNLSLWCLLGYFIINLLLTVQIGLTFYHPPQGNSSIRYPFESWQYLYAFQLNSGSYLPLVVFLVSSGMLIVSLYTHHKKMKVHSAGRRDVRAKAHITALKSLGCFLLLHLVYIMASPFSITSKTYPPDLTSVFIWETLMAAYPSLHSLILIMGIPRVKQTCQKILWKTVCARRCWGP
Outline: as §1

hT2R65 = experiment: hT2R panel inhibition, transient HEK293 G16g44, agonist Oleuropein 1 mM; type: cell-based, human; settings: compound at 25 μM
Outline: as §1

hT2R54 = experiment: hT2R panel inhibition, transient HEK293 G16g44, agonist Ranitidine 5 mM; type: cell-based, human; settings: compound at 25 μM
Outline: as §1

hT2R51 = hT2R51 (Homo sapiens (Human), UniProt P59533); experiment: hT2R panel inhibition, transient HEK293 G16g44, agonist Prop 2.5 μM; type: cell-based; settings: HEK293, compound at 25 μM
Sequence of hT2R51 (P59533 whole entry): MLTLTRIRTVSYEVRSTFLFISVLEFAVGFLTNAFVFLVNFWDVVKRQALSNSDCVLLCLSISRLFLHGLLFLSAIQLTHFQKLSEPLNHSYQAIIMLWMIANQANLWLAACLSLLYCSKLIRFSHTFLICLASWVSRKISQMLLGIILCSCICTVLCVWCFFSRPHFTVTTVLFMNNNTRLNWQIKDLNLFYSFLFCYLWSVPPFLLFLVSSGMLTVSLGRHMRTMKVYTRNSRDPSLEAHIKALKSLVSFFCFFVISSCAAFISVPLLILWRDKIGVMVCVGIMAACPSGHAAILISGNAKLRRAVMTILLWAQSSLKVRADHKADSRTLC
Outline: as §1

hT2R67 = experiment: hT2R panel inhibition, transient HEK293 G16g44, agonist Andrographolide 5 μM; type: cell-based, human; settings: compound at 25 μM; receptor activated to EC80 with agonist
Outline: as §1

[3] = receptor activated to EC80 with the corresponding agonist, read-out: screening result against bitter receptor 61
[4] = receptor activated to EC80 with the corresponding agonist, read-out: screening result against bitter receptor 64
[5] = receptor activated to EC80 with the corresponding agonist, read-out: screening result against bitter receptor 14
[6] = HEK293, read-out: screening result against bitter receptor 10, compound at 25 μM, receptor activated to EC80 with the corresponding agonist
[7] = receptor activated to EC80 with the corresponding agonist, class symbols, read-out: screening result against bitter receptor 4
[8] = receptor activated to EC80 with the corresponding agonist, read-out: screening result against bitter receptor 71
[9] = receptor activated to EC80 with the corresponding agonist, read-out: screening result against bitter receptor 3
[10] = receptor activated to EC80 with the corresponding agonist, read-out: screening result against bitter receptor 16
[11] = receptor activated to EC80 with the corresponding agonist, read-out: screening result against bitter receptor 7
[12] = receptor activated to EC80 with the corresponding agonist, read-out: screening result against bitter receptor 5
[13] = receptor activated to EC80 with the corresponding agonist
[14] = receptor activated to EC80 with agonist

## CCN(Cc1ccc(OC)cc1)S(=O)(=O)c1ccc(C(=O)O)cc1 [Example 5-4, 4-(N-ethyl-N-(4-methoxybenzyl)sulfamoyl)benzoic acid]
hT2R55
  screening result against bitter receptor 55: ++++ (80% or greater inhibition = ++++)
hT2R61; [3]
  inhibition at 25 µM: 20 to 40%
hT2R64; [4]
  inhibition at 25 µM: > 80%
hT2R63
  screening result against bitter receptor 63: +++ (60% to 80% inhibition = +++)
hT2R14 [1]; [5]
  inhibition at 25 µM: 40 to 60%
hT2R14 [2]
  IC50: 20 µM and 10 µM
hT2R10; [6]
  inhibition at 25 µM: 40 to 60%
hT2R75
  inhibition at 25 µM: 20 to 40%
hT2R4; [7]
  inhibition at 25 µM: 20 to 40%

## O=C(O)C1CCC(CN(Cc2ccc(F)cc2)S(=O)(=O)c2ccccc2)CC1 (stereo not drawn) [Example 5-22, 4-((N-(4-fluorobenzyl)phenylsulfonamido)methyl)-cyclohexanecarboxylic acid]
hT2R55
  screening result against bitter receptor 55: +++ (60% to 80% inhibition = +++)
hT2R61; [3]
  inhibition at 25 µM: > 80%
hT2R64; [4]
  inhibition at 25 µM: 40 to 60%
hT2R71; [8]
  inhibition at 25 µM: 40 to 60%
hT2R63
  screening result against bitter receptor 63: +++ (60% to 80% inhibition = +++)
hT2R14 [1]; [5]
  inhibition at 25 µM: > 80%
hT2R44
  screening result against bitter receptor 44: ++ (40% to 60% inhibition = ++)
hT2R3; [9]
  inhibition at 25 µM: 40 to 60%
hT2R14 [2]
  IC50: 0.24 µM
hT2R16; [10]
  inhibition at 25 µM: 20 to 40%
hT2R10; [6]
  inhibition at 25 µM: 20 to 40%
hT2R75
  inhibition at 25 µM: 20 to 40%
hT2R7; [11]
  inhibition at 25 µM: 20 to 40%
hT2R4; [7]
  inhibition at 25 µM: 40 to 60%

## Cc1ccc(S(=O)(=O)N(Cc2ccc(F)cc2)Cc2ccc(C(=O)O)cc2)cc1 [Example 5-37, 4-((N-(4-fluorobenzyl)-4-methylphenylsulfonamido)methyl)benzoic acid]
hT2R55
  screening result against bitter receptor 55: ++++ (80% or greater inhibition = ++++)
hT2R64; [4]
  inhibition at 25 µM: 60 to 80%
hT2R63
  screening result against bitter receptor 63: + (20% to 40% inhibition = +)
hT2R14 [1]; [5]
  inhibition at 25 µM: > 80%
hT2R3; [9]
  inhibition at 25 µM: 20 to 40%
hT2R5; [12]
  inhibition at 25 µM: 20 to 40%
hT2R14 [2]
  IC50: 0.054 µM
hT2R16; [10]
  inhibition at 25 µM: 20 to 40%
hT2R65; [13]
  screening result against bitter receptor 65: ++ (40% to 60% inhibition = ++)
hT2R7; [11]
  inhibition at 25 µM: 20 to 40%
hT2R4; [7]
  inhibition at 25 µM: 60 to 80%

## COc1ccc(CN(Cc2ccc(OC)c(OC)c2)S(=O)(=O)c2ccc(C(=O)O)cc2)cc1 [Example 5-40, 4-(N-(3,4-dimethoxybenzyl)-N-(4-methoxybenzyl)sulfamoyl)benzoic acid]
hT2R55
  screening result against bitter receptor 55: ++++ (80% or greater inhibition = ++++)
hT2R61; [3]
  inhibition at 25 µM: > 80%
hT2R64; [4]
  inhibition at 25 µM: 60 to 80%
hT2R71; [8]
  inhibition at 25 µM: 40 to 60%
hT2R63
  screening result against bitter receptor 63: ++++ (80% or greater inhibition = ++++)
hT2R14 [1]; [5]
  inhibition at 25 µM: > 80%
hT2R44
  screening result against bitter receptor 44: +++ (60% to 80% inhibition = +++)
hT2R3; [9]
  inhibition at 25 µM: 20 to 40%
hT2R5; [12]
  inhibition at 25 µM: 20 to 40%
hT2R14 [2]
  IC50: 1.47 µM
hT2R16; [10]
  inhibition at 25 µM: 20 to 40%
hT2R10; [6]
  inhibition at 25 µM: 40 to 60%
hT2R54; [13]
  screening result against bitter receptor 54: + (20% to 40% inhibition = +)
hT2R51; receptor activated to EC80 with the corresponding agonist, read-out: screening result against bitter receptor 51
  inhibition at 25 µM: 20 to 40%
hT2R4; [7]
  inhibition at 25 µM: 20 to 40%

## CCOc1ccc(CN(Cc2ccccc2)S(=O)(=O)c2ccc(C(=O)O)cc2)cc1 [Example 5-108, 4-(N-benzyl-N-(4-ethoxybenzyl)sulfamoyl)benzoic acid]
hT2R55; [14]
  inhibition of bitter receptor 55: ++++ (80% or greater inhibition = ++++)
hT2R61; receptor activated to EC80 with agonist, read-out: inhibition of bitter receptor 61
  inhibition at 25 µM: > 80%
hT2R64; receptor activated to EC80 with agonist, read-out: inhibition of bitter receptor 64
  inhibition at 25 µM: > 80%
hT2R71; receptor activated to EC80 with agonist, read-out: inhibition of bitter receptor 71
  inhibition at 25 µM: 60 to 80%
hT2R63; [14]
  inhibition of bitter receptor 63: +++ (60% to 80% inhibition = +++)
hT2R14 [1]; receptor activated to EC80 with agonist, read-out: inhibition of bitter receptor 14
  inhibition at 25 µM: > 80%
hT2R44; [14]
  inhibition of bitter receptor 44: +++ (60% to 80% inhibition = +++)
hT2R3; receptor activated to EC80 with agonist, read-out: inhibition of bitter receptor 3
  inhibition at 25 µM: 40 to 60%
hT2R67
  inhibition of bitter receptor 67: + (20% to 40% inhibition = +)
hT2R5; receptor activated to EC80 with agonist, read-out: inhibition of bitter receptor 5
  inhibition at 25 µM: 20 to 40%
hT2R16; receptor activated to EC80 with agonist, read-out: inhibition of bitter receptor 16
  inhibition at 25 µM: 20 to 40%
hT2R10; HEK293, read-out: inhibition of bitter receptor 10, compound at 25 μM, receptor activated to EC80 with agonist
  inhibition at 25 µM: 40 to 60%
hT2R65; [14]
  inhibition of bitter receptor 65: ++ (40% to 60% inhibition = ++)
hT2R54; [14]
  inhibition of bitter receptor 54: + (20% to 40% inhibition = +)
hT2R51; receptor activated to EC80 with agonist, read-out: inhibition of bitter receptor 51
  inhibition at 25 µM: 40 to 60%
hT2R7; receptor activated to EC80 with agonist, read-out: inhibition of bitter receptor 7
  inhibition at 25 µM: 20 to 40%
hT2R4; receptor activated to EC80 with agonist, read-out: inhibition of bitter receptor 4
  inhibition at 25 µM: 60 to 80%
